In the NIST ThermoML archive (doi:10.1021/je800049b):
± gives the expanded uncertainty stated by the source.

Assays:
[1] = Crystal; DTA
[2] = Molar enthalpy of transition or fusion; settings: Crystal; DSC

O=P(O)(c1ccccc1)c1ccccc1 [diphenylphosphinic acid]
Normal melting temperature [1]: 192.97 ± 0.5 °C | Molar enthalpy of transition or fusion [2]: 5.24 ± 0.155 kcal/mol
